Data set [1] is described as follows: Measured pKa of cationic lipids in LNP or micellar formulations by TNS fluorescence. The class given is physicochemical. The following applies: measured in the Formulation milieu, TNS fluorescence, 1 mM total lipids. The method, then:
pKa of cationic lipids in LNP or micellar Formulations were measured by the procedure of Jayaraman, 2012, Angew. Chem. Int. Ed., 51:8529-33, hereby incorporated by reference. Lipid micelles or LNPs are diluted to 1 mM total lipids in universal buffer with a pH range between 3 and 12 in presence of 0.06 mg/mL 6-(p-toluidino)-2-naphthalenesulfonic acid sodium salt (TNS) reagent (Sigma Aldrich), a pH sensitive fluorescence probe. The anionic TNS molecule fluoresces when associated with the surface of positively charged membranes but is not fluorescent when free in solution, allowing measurement of pKa. The TNS signal is measured on a spectral plate reader. The TNS signal is plotted as function of the pH and analyzed using a non-linear (Boltzman) to determine the pKa.
Reagents used in the assay include • Hepes free acid, CAS: 7365-45-9 (VWR, 0511-1KG or equivalent) • MES, HPLC grade: (Sigma 105228-100G or equivalent) • Ammonium acetate, HPLC grade: (Sigma 90335-100 mL or equivalent) • Sodium chloride, HPLC grade (VWR EM-MX0475-1 or equivalent) • TNS (Sigma-Aldrich T9792-250 mg or equivalent) • Hydrochloric acid • DMSO • DPBS without calcium and magnesium (GE, SH30028.02 or equivalent) • H2O, HPLC grade (OmniSolv, WX0004-1 or equivalent)
To prepare a stock solution of Universal Buffer (UB) in a polystyrene sterile storage bottle, prepare 1 L using the following table.
Reagents are sterile filtered through a 0.2 μm filter. Preparation of UB solution includes adding 5 mL of 1 M HCl to a 350 mL stock solution.
To prepare a pH ladder, centrifuge tubes (50 mL) with 20 mL UB buffer are used. (pH ˜3) and differing amounts of 2 N NaOH. Stock solutions of TNS at 1 mg/mL in DMSO. 60 μL of TNS at 1 mg/mL is added to 940 μL water to reach a working solution concentration of 0.06 mg/mL. Five test samples, 1 mL of LNP sample in PBS at 1 mM total lipid, and 1 reference sample are analyzed per plate. Samples at different pH values are prepared in wells in which 25 μL of 0.06 mg/mL TNS is added. 15 μL of test samples is added per well. The microplate is incubated for 15 minutes at room temperature in the dark. TNS template can be used to format data from the plate reader. Perform non-linear (Boltzman) regression analysis of the samples in Origin Pro 8 or equivalent software.

In a further data set the test system is Factor VII. Nature of the data set: In vivo mouse Factor VII siRNA knockdown with lipid nanoparticles. The following applies: intravenous, mice, 48 hours. Set-up: species or system C57BL/6 mice. The source says: The first pair of numbers denotes the number of carbons in the ester, including the carbonyl, for L1 and L2; the pair of numbers in the parenthesis denotes the number of carbons in each branch of the branched alkyl, R1 or if R2 is also branched, R1/R2 (an asterisk denotes a double bond); the number of carbons in R3 is given; and the last line denotes the substitution for R4 and R5. The ATX number is given for reference herein. Calculated Log D values (c-Log D) and calculated pKa (c-pKa) values are given, as well as measured pKa in parenthesis (measured in the Formulation milieu). The c-Log D and c-pKa values are generated by ACD Labs Structure Designer v12.0. Bioactivity is percentage in vivo Factor VII knockdown at a dose of 0.03 mg/kg, unless otherwise designated.
Using a liver-directed in vivo screen of the liposome libraries, a series of compounds were tested that facilitate high levels of siRNA mediated gene silencing in hepatocytes, the cells comprising the liver parenchyma. Factor VII, a blood-clotting factor, is a suitable target gene for assaying functional siRNA delivery to liver. Because this factor is produced specifically in hepatocytes, gene silencing indicates successful delivery to parenchyma, as opposed to delivery to the cells of the reticulo-endothelial system (e.g., Kupffer cells). Furthermore, Factor VII is a secreted protein that can be readily measured in serum, obviating the need to euthanize animals. Silencing at the mRNA level can be readily determined by measuring levels of protein. This is because the protein's short half-life (2-5 hour). Compositions with siRNA directed to […] were Formulated with the lipid, and comparator sample phosphate-buffered saline (PBS). Female C57BL/6 mice (6-8 week old) were used for FVII siRNA knockdown (KD) experiments.
All Formulations were administered intravenously via tail vein injection at a dose of 0.03 and 0.1 mg/kg at a dosing volume of […]. Terminal blood collection was performed via cardiac puncture under 2% isoflurane at 48 hours after Formulation injections. Blood was collected into 0.109 M citrate buffer tube and processed by centrifugation at 1200 G for 10 min. Plasma was collected and Factor VII protein levels were analyzed by chromogenic assay (Biophen FVII, Aniara Corporation). A standard curve was constructed using samples from PBS-injected mice and relative Factor VII expression was determined by comparing treated groups to untreated PBS control.

A word on the pKa: it is the pH at which an ionisable group is half protonated. Low values mean a group that gives up its proton readily, high ones a group that holds its proton tightly.

In turn, `CCCCCC(CCCCC)OC(=O)CN(CC(=O)OC(CCCCC)CCCCC)C(=O)SCCCN(CC)CC` showed a pKa in data set [1] of 6.21.
Turning to `CCCCCC/C=C\COC(=O)CN(CC(=O)OC(CCCCCCC)CCCCCCC)C(=O)SCCCN(C)C`, in data set [1], the pKa was determined as 6.44. The “Bioactivity: percentage in vivo Factor VII knockdown” value (shortened to “Bioactivity: percentage”) with Factor VII (dose 0.03 mg/kg) is on record as 62 percentage.
Taken in the same sequence, the figures for `CCCCCCCC(CCCCCCC)OC(=O)CN(CC(=O)OC(CCCCCCC)CCCCCCC)C(=O)SCCCN(C)C` were 5.68 and 25 percentage.
The corresponding values for `CCCCCC/C=C\COC(=O)CN(CC(=O)OC(CCCCCCCC)CCCCCCCC)C(=O)SCCCN(C)C` are 6.38 and 97 percentage.
The corresponding values for `CCCCCC/C=C\COC(=O)CN(CC(=O)OC(CCCCCCCC)CCCCCCCC)C(=O)SCCCN(CC)CC` are 6.2 and 82 percentage.
Compound `CCCCCC/C=C\COC(=O)CN(CC(=O)OC(CCCCCCCC)CCCCCCCC)C(=O)SCCCCN(C)C` gave a pKa in data set [1] of 6.69. Also, in the data set with Factor VII (dose 0.03 mg/kg), the “Bioactivity: percentage” value worked out at 90 percentage.
The corresponding values for `CCCCCC/C=C\COC(=O)CN(CC(=O)OC(CCCCCCCC)CCCCCCCC)C(=O)SCCCCN(CC)CC` are 6.9 and 97 percentage.
Taken in the same sequence, the figures for `CCCCCC/C=C\COC(=O)CCCN(CC(=O)OC(CCCCCCC)CCCCCCC)C(=O)SCCN(C)C` were 5.83 and 40 percentage.
Taken in the same sequence, the figures for `CCCCCC/C=C\COC(=O)CCCN(CC(=O)OC(CCCCCCC)CCCCCCC)C(=O)SCCCN(C)C` were 6.85 and 53 percentage.
In data set [1], `CCCCCC/C=C\COC(=O)CCCN(CC(=O)OC(CCCCCCC)CCCCCCC)C(=O)SCCCN(CC)CC` had a pKa of 6.53. In addition, the “Bioactivity: percentage” value in the data set with Factor VII (dose 0.03 mg/kg) is 70 percentage.
`CCC/C=C/CCC(CC/C=C/CCC)OC(=O)CCCN(CCCC(=O)OC/C=C\CCCCCC)C(=O)SCCN(C)C` showed a pKa in data set [1] of 6. The “Bioactivity: percentage” value in the data set on Factor VII (dose 0.03 mg/kg) was determined as 72 percentage.
In data set [1], `CCCCCC/C=C\COC(=O)CCCN(CCCC(=O)OC(CCCCCCC)CCCCCCC)C(=O)SCCCN(CC)CC` came in with a pKa of 6.66. Further, the “Bioactivity: percentage” value in the data set with Factor VII (dose 0.03 mg/kg) is reported as 96 percentage.
The corresponding values for `CCCCCC/C=C\COC(=O)CCCN(CCCC(=O)OC(CCCCCCC)CCCCCCCC)C(=O)SCCCN(CC)CC` (centres unmarked) are 6.65 and 93 percentage.
The corresponding values for `CCCCCC/C=C\COC(=O)CCCN(CCCC(=O)OC(CCCCCCCC)CCCCCCCC)C(=O)SCCCN(CC)CC` are 6.58 and 75 percentage.
For the compound `CCCCCC(CCCCC)OC(=O)CCCN(CCCC(=O)OC(CCCCC)CCCCC)C(=O)SCCCN(C)C`, in data set [1], the pKa turned out to be 6.8. The “Bioactivity: percentage” value in the data set on Factor VII (dose 0.1 mg/kg) is recorded as 14 (0.1 mg/ kg) percentage.
The corresponding values for `CCCCCC(CCCCC)OC(=O)CCCN(CCCC(=O)OC(CCCCC)CCCCC)C(=O)SCCCN(CC)CC` are 5.56 and 27 (0.1 mg/ kg) percentage.
`CCCCCCCC(CCCCCCC)OC(=O)CCCN(CCCC(=O)OC(CCCCCCC)CCCCCCC)C(=O)SCCCN(C)C` registered a pKa in data set [1] of 6.38. Also, the “Bioactivity: percentage” value with Factor VII (dose 0.03 mg/kg) worked out at 99 percentage.
Taken in the same sequence, the figures for `CCCCCCCC(CCCCCCC)OC(=O)CCCN(CCCC(=O)OC(CCCCCCC)CCCCCCC)C(=O)SCCCN(CC)CC` were 6.31 and 97 percentage.
Taken in the same sequence, the figures for `CCC/C=C/CCC(CC/C=C/CCC)OC(=O)CCCN(CCCCCC(=O)OC/C=C\CCCCCC)C(=O)SCCN(C)C` were 5.93 and 75 percentage.
With `CCCCCC/C=C\COC(=O)CCCCCN(CCCC(=O)OC(CCCCCCCC)CCCCCCCC)C(=O)SCCN(C)C`, the pKa in data set [1] worked out at 5.38. In addition, in the data set on Factor VII (dose 0.03 mg/kg), the “Bioactivity: percentage” value was 81 percentage.
Taken in the same sequence, the figures for `CCCCCC/C=C\COC(=O)CCCCCN(CCCCC(=O)OC(CCCCCCC)CCCCCCC)C(=O)SCCN(C)C` were 5.9 and 90 percentage.
The corresponding values for `CCCCCC/C=C\COC(=O)CCCCCCCN(CCCC(=O)OC(CCCCCC)CCCCCC)C(=O)SCCN(C)C` are 5.61 and 63 percentage.
The compound `CCCCCC/C=C\COC(=O)CCCCCCCN(CCCC(=O)OC(CCCCCCC)CCCCCCC)C(=O)SCCN(C)C` displayed a pKa in data set [1] of 5.38. Moreover, in the data set with Factor VII (dose 0.03 mg/kg), the “Bioactivity: percentage” value was found to be 73 percentage.
The corresponding values for `CCCCCC/C=C\COC(=O)CCCCCN(CCCCCC(=O)OC(CCCCCCC)CCCCCCC)C(=O)SCCN(C)C` are 5.93 and 91 percentage.
In data set [1], `CCC/C=C/CCC(CC/C=C/CCC)OC(=O)CCCCCN(CCCCCC(=O)OC/C=C\CCCCCC)C(=O)SCCN(C)C` showed a pKa of 5.94. For the same compound, the “Bioactivity: percentage” value with Factor VII (dose 0.03 mg/kg) was 82 percentage.
The corresponding values for `CCCCCC/C=C\COC(=O)CCCCCN(CCCCCC(=O)OC(CCCCCCCC)CCCCCCCC)C(=O)SCCN(C)C` are 5.82 and 85 percentage.
The corresponding values for `CCCCCC/C=C\COC(=O)CCCCCN(CCCCCC(=O)OC(CCCCCCC)CCCCCCC)C(=O)SCCCN(CC)CC` are 6.45 and 95 percentage.
Taken in the same sequence, the figures for `CCCCCC/C=C\COC(=O)CCCCCCN(CCCCCCC(=O)OC(CCCCCC)CCCCCC)C(=O)SCCN(C)C` were 5.67 and 66 percentage.
Compound `CCC/C=C/CCC(CC/C=C/CCC)OC(=O)CCCCCCN(CCCCCCC(=O)OC/C=C\CCCCCC)C(=O)SCCN(C)C` registered a pKa in data set [1] of 5.68. Besides, the “Bioactivity: percentage” value in the data set on Factor VII (dose 0.03 mg/kg) came to 67 percentage.
Taken in the same sequence, the figures for `CCCCCC/C=C\COC(=O)CCCCCCCN(CCCCCCCC(=O)OC(CCCC)CCCC)C(=O)SCCN(C)C` were 6.22 and 71 percentage.
The corresponding values for `CCCCCC/C=C\COC(=O)CCCCCCCN(CCCCCCCC(=O)OC(CCCCC)CCCCC)C(=O)SCCN(C)C` are 5.81 and 68 percentage.
`CCCCCCC(CCCCC)OC(=O)CCCN(CCCCC(=O)OC(CCCCC)CCCCC)C(=O)SCCN(C)C` (centres unmarked) [ATX-0085]: the “Bioactivity: percentage” value in the data set with Factor VII (dose 0.03 mg/kg) turned out to be 56 percentage.
